1 compound from US10398785B2, “Pharmaceutical compositions containing taxane-cyclodextrin complexes, method of making and methods of use” (MERIDIAN LAB, priority 2015, dated 2019) can be followed below.

This data set can be described thus: Accelerated aging stability study at 40° C. for eleven days (impurities by HPLC, USP35). Type of data set: physicochemical. The following applies: in the liquid pharmaceutical composition throughout 11 days of accelerated aging at 40° C. Here is the method:
A liquid pharmaceutical composition as described above, comprising ˜10 mg/mL docetaxel was diluted and subjected to accelerated aging at 40° C. for eleven days. The levels of impurities as specified by USP35 (United States Pharmacopeia 35) for taxane compositions were analyzed by HPLC at regular intervals. Stability was tested at 6 hours on day 0. Impurity levels in the liquid pharmaceutical compositions were compared to the allowable level according to the USP35 standard.

Each structure is given as a SMILES string.

The compound `CC(=O)O[C@@]12CO[C@@H]1C[C@H](O)[C@@]1(C)C(=O)[C@H](O)C3=C(C)[C@@H](OC(=O)[C@H](O)[C@@H](NC(=O)OC(C)(C)C)c4ccccc4)C[C@@](O)([C@@H](OC(=O)c4ccccc4)[C@H]21)C3(C)C` [docetaxel] had a Concentration of docetaxel of 9520 µg/mL.
